In patent US7005546B2, “Acetamidobenzamide compounds for neurodegenerative disorders” (Renovis, Inc., priority 1995, dated 2006):

How the values were obtained:
[1] = tested on: MPTP-induced reduction in striatal dopamine, C57BL/6J mice; assay: Dopamine depletion studies (MPTP mouse model of Parkinson's disease); format: in vivo; settings: for preventing dopamine depletion following MPTP challenge (in words): Table 1 conditions, 30 mg/kg p.o.
Experimental: These findings have led to the development of an assay for agents effective in treating dopamine-associated neurodegenerative disorders, such as Parkinson's disease. In this assay, test animals are given an amount of MPTP adequate to severely depress their dopamine levels. Test compounds are administered to determine if they are capable of preventing the loss of dopamine in the test animals. To the extent that dopamine levels are retained, a compound can be considered to be an effective agent for slowing or delaying the course of neurodegenerative disease, e.g., Parkinson's disease. C57BL/6J mice were pretreated with either vehicle (1% methyl cellulose) or a drug (p.o.) 30 min before MPTP. MPTP was dissolved in isotonic saline (0.9%) and given subcutaneously as a single dose of 15 mg free base/kg body weight to produce a reduction in striatal dopamine to about 0.5 nanomoles/mg protein. Groups of mice (n=8–10 per group) received either vehicle plus saline, vehicle plus MPTP or drug plus MPTP. Seventy two hours after receiving MPTP, mice were sacrificed using cervical dislocation and the striata were excised. The tissue was homogenized in 0.4 N perchloric acid, centrifuged, and the supernatant analyzed by high performance liquid chromatography/electro-chemical detection (HPLC/ED) for dopamine levels. Supernatants were stored in a −90° C. freezer between the time of collection and analysis. The drugs were combined with methyl cellulose and were homogenized in water for dosing. The dosage amount ranged from 10 to 50 mg/kg for CPI1160, CPI1189 and CPI1234, and from 50 to 100 mg/kg for CPI1020.

[2] = In vivo biotransformation of orally administered CPI1020, blood of mice; settings: mice given CPI1020 orally
Source text: (§1) Commonly owned U.S. patent application Ser. No. 08/227,777, referred to above, discloses several benzamides useful in treating neurodegenerative diseases based on their protective action in the MPTP mouse model of Parkinson's disease. […] This compound is likely formed in the body by reduction of the ring nitro of CPI1020 to an amino moiety (CPI1160) followed by acetylation of the amino function.

[3] = In vivo biotransformation of orally administered CPI1020, blood of rats; settings: rats given CPI1020 orally
Source text: as §1

melting point | in vivo biotransformation product of CPI1020 in blood [2] | in vivo biotransformation product of CPI1020 in blood [3] | SMILES | protection from the neurotoxic action of MPTP (% of control) ([1]; 50 mg/kg p.o., 15 mg/kg MPTP model) | preventing dopamine depletion following MPTP challenge (in words) [1]
– | – | – | CC(C)(C)NC(=O)c1ccc([N+](=O)[O-])cc1 [CPI1020, N-tert-butyl-4-nitrobenzamide, reference compound] | 65 % of control | –
194 to 195 °C | – | – | CC(=O)Nc1cccc(C(=O)NC(C)(C)C)c1 [CPI1234, N-tert-butyl-3-acetamidobenzamide] | – | effective
125 to 127 °C | – | – | CC(C)(C)NC(=O)c1ccc(N)cc1 [CPI1160, N-tert-butyl-4-aminobenzamide] | – | effective
– | found in the blood | found in the blood | CC(=O)Nc1ccc(C(=O)NC(C)(C)C)cc1 [CPI1189, N-tert-butyl-4-acetamidobenzamide] | – | effective
